Results: patent US8426436B2, “Heterocyclic cyclopamine analogs and methods of use thereof” (Infinity Discovery, Inc., priority 2007, dated 2013)

What was measured:
Hedgehog pathway = assay: C3H10T1/2 osteoblast differentiation assay (alkaline phosphatase readout, Shh-induced); format: cell-based; settings: Mus musculus, C3H 10T1/2; C3H10T1/2 cells, sonic Hedgehog 250 ng/ml, AP activity normalized to total protein; approximate EC50 for inhibition
From the text: Hedgehog pathway specific cancer cell killing effects may be ascertained using the following assay. C3H10T1/2 cells differentiate into osteoblasts when contacted with the sonic hedgehog peptide (Shh-N). Upon differentiation, these osteoblasts produce high levels of alkaline phosphatase (AP) which can be measured in an enzymatic assay (Nakamura, et al., BBRC (1997) 237:465). Compounds that block the differentiation of C3H10T1/2 into osteoblasts (a Shh dependent event) can therefore be identified by a reduction in AP production (van der Horst, et al., Bone (2003) 33:899). The assay details are described below. The results approximate (EC50 for inhibition) of the differentiation assay is shown below in Table 1.
Mouse embryonic mesoderm fibroblasts C3H10T1/2 cells (obtained from ATCC) were cultured in Basal MEM Media (Gibco/Invitrogen) supplemented with 10% heat inactivated FBS (Hyclone), 50 units/ml penicillin and 50 ug/ml streptomycin (Gibco/Invitrogen) at 37° C. with 5% CO2 in air atmosphere.
Alkaline Phosphatase Assay C3H10T1/2 cells were plated in 96 wells with a density of 8×10^3 cells/well. Cells were grown to confluence (72 hrs). After sonic Hedgehog (250 ng/ml), and/or compound treatment, the cells were lysed in 110 μL of lysis buffer (50 mM Tris pH 7.4, 0.1% TritonX100), plates were sonicated and lysates spun through 0.2 μm PVDF plates (Corning). 40 μL of lysates was assayed for AP activity in alkaline buffer solution (Sigma) containing 1 mg/ml p-Nitrophenyl Phosphate. After incubating for 30 min at 37° C., the plates were read on an Envision plate reader at 405 nm. Total protein was quantified with a BCA protein assay kit from Pierce according to manufacturer's instructions. AP activity was normalized against total protein.

human Gli-1 mRNA = assay: Gli-1 mRNA analysis of PANC-1 tumor tissue, human Gli-1; format: in vivo; settings: RNA isolated 24 hours after final dose
Description: (§1) The activity of Compound 10 was also tested in another model of pancreatic cancer in which the PANC-1 pancreatic cancer cells were implanted into the orthotopic site, that is, directly into the pancreas. At the end of 5 weeks of dosing, 40 mg/kg/day (a total of 35 doses), tumor growth was monitored by weighing the tumors as they were removed from the animals. There was a statistically significant (p=0.00014) difference between the Compound 10 and vehicle treated animals which was seen as a 47% decrease in tumor weight in the Compound 10 treated animals. In addition, tumor tissue was harvested and RNA was isolated 24 hours after the final dose of Compound 10.

BxPC-3 cells = assay: BxPC-3 human pancreatic subcutaneous tumor model, tumor volume; format: in vivo, mice; settings: BxPC-3 subcutaneous, orally 40 mg/kg/day, 25 daily doses, p=0.0437
Description: (§2) The activity of Compound 10 was further tested in a human pancreatic model: BxPC-3 cells were implanted subcutaneously into the flanks of the right legs of mice. On day 42 post-tumor implant, the mice were randomized into two groups to receive either Vehicle (30% HPBCD) or Compound 10. Compound 10 was administered orally at 40 mg/kg/day. […] At the end of the study, the tumors were harvested 4 hours post the last dose to evaluate an on target response by q-RT-PCR analysis of the HH pathway genes.

murine Gli-1 = assay: Gli-1 mRNA analysis of PANC-1 tumor tissue, murine Gli-1; format: in vivo; settings: RNA isolated 24 hours after final dose
Description: as §1

human Gli-1 = assay: q-RT-PCR of HH pathway genes in harvested BxPC-3 tumors, human Gli-1; format: in vivo; settings: BxPC-3 tumors harvested 4 hours post last dose, 40 mg/kg/day oral
Description: as §2

Gli-1 mRNA = assay: Ptch1/Hic1 medulloblastoma subcutaneous allograft model, Gli-1 mRNA expression; format: in vivo, mouse; settings: single oral (PO) dose, subcutaneously implanted tumors, 8 hours post dose
Description: (§3) The activity of Compound 10 was evaluated in a transgenic mouse model of medulloblastoma. Mice that are heterozygous for loss of function mutations in the tumor suppressors Patched1 (Ptch1) and Hypermethylated in Cancer (Hic1) develop spontaneous medulloblastoma. […] When passaged as subcutaneous allografts, these tumors grow aggressively and are Hedgehog pathway-dependent. This model was employed to evaluate the efficacy of orally administered Compound, and to correlate activity with drug exposure in plasma and tumors.

murine Gli-1 mRNA = assay: q-RT-PCR of HH pathway genes in harvested BxPC-3 tumors, murine Gli-1; format: in vivo; settings: BxPC-3 tumors harvested 4 hours post last dose, 40 mg/kg/day oral
Description: as §2

[1] = system: PANC-1 pancreatic cancer cells; assay: PANC-1 orthotopic pancreatic cancer model, tumor weight; format: in vivo; settings: 40 mg/kg/day, 5 weeks (35 doses), p=0.00014
Description: as §1

medulloblastoma = assay: Ptch1/Hic1 medulloblastoma subcutaneous allograft model, tumor growth; format: in vivo, mouse
Description: as §3
The approximate effective daily oral dose for 50% inhibition of tumor growth (ED50) is […] 8 mg/kg.

With `CC1=C2C[C@H]3[C@@H](CC[C@@H]4Cc5nn(S(C)(=O)=O)cc5C[C@@]43C)[C@@H]2CC[C@@]2(C1)O[C@@H]1C[C@H](C)CN[C@H]1[C@H]2C` [Compound 12] the EC50 (Hedgehog pathway) was over 0.1 µM.
`CC1=C2C[C@H]3[C@@H](CC[C@@H]4Cc5nn(C)cc5C[C@@]43C)[C@@H]2CC[C@@]2(C1)O[C@@H]1C[C@H](C)CN[C@H]1[C@H]2C` [Compound 11] was tested, and the EC50 (Hedgehog pathway) was 0.02 to 0.1 µM.
With `CC1=C2C[C@H]3[C@@H](CC[C@@H]4Cc5[nH]ncc5C[C@@]43C)[C@@H]2CC[C@@]2(C1)O[C@@H]1C[C@H](C)CN(S(N)(=O)=O)[C@H]1[C@H]2C` [Compound 44] the EC50 (Hedgehog pathway) was 0.02 to 0.1 µM.
Work on `CC1=C2C[C@H]3[C@@H](CC[C@@H]4Cc5n[nH]cc5C[C@@]43C)[C@@H]2CC[C@@]2(C1)O[C@@H]1C[C@H](C)CN(C)[C@H]1[C@H]2C` [Compound 13] yielded an EC50 (Hedgehog pathway) of 0.02 to 0.1 µM.
Work on `CC1=C2C[C@H]3[C@@H](CC[C@H]4Cc5[nH]ncc5C[C@@]43C)[C@@H]2CC[C@@]2(C1)O[C@@H]1C[C@H](C)CN[C@H]1[C@H]2C` [Compound 45] yielded an EC50 (Hedgehog pathway) of over 0.1 µM.
`CC(=O)N1C[C@@H](C)C[C@H]2O[C@]3(CC[C@@H]4C(=C(C)C3)C[C@H]3[C@H]4CC[C@@H]4Cc5n[nH]cc5C[C@@]43C)[C@H](C)[C@@H]21` [Compound 14] was tested, and the EC50 (Hedgehog pathway) was 0.02 to 0.1 µM.
With `CC1=C2C[C@H]3[C@@H](CC[C@@H]4Cc5[nH]ncc5C[C@@]43C)[C@@H]2CC[C@@]2(C1)O[C@@H]1C[C@H](C)CN(S(C)(=O)=O)[C@H]1[C@H]2C` [Compound 40] the EC50 (Hedgehog pathway) was 0.02 to 0.1 µM.
`CC1=C2C[C@H]3[C@@H](CC[C@@H]4Cc5nocc5C[C@@]43C)[C@@H]2CC[C@@]2(C1)O[C@@H]1C[C@H](C)CN[C@H]1[C@H]2C` [Compound 1] gave an EC50 (Hedgehog pathway) of 0.02 to 0.1 µM.
In the case of `CC1=C2C[C@H]3[C@@H](CC[C@@H]4Cc5nn(S(=O)(=O)c6ccc(C)cc6)cc5C[C@@]43C)[C@@H]2CC[C@@]2(C1)O[C@@H]1C[C@H](C)CN[C@H]1[C@H]2C` [Compound 43], the EC50 (Hedgehog pathway) is reported as over 0.1 µM.
`CC1=C2C[C@H]3[C@@H](CC[C@@H]4Cc5n[nH]c(C(F)(F)F)c5C[C@@]43C)[C@@H]2CC[C@@]2(C1)O[C@@H]1C[C@H](C)CN[C@H]1[C@H]2C` [Compound 15] showed an EC50 (Hedgehog pathway) of over 0.1 µM.
With `CC1=C2C[C@H]3[C@@H](CC[C@@H]4Cc5[nH]ncc5C[C@@]43C)[C@@H]2CC[C@]12O[C@@H]1C[C@H](C)CN[C@H]1[C@H]2C` [Compound 19] the EC50 (Hedgehog pathway) was over 0.1 µM.
`C[C@@H]1CN[C@H]2[C@@H](C)[C@@]3(CC[C@@H]4C(C[C@H]5[C@H]4CC[C@@H]4Cc6[nH]ncc6C[C@@]45C)C3)O[C@@H]2C1` (stereo partly shown) [Compound 17] gave an EC50 (Hedgehog pathway) of 0.02 to 0.1 µM.
`CC1=C2C[C@H]3[C@@H](CC[C@@H]4Cc5n[nH]cc5C[C@@]43C)[C@@H]2CC[C@@]2(C1)O[C@@H]1C[C@H](C)CN[C@H]1[C@H]2C` [Compound 10] was tested, and the “human Gli-1 mRNA modulation” value (human Gli-1 mRNA) was “no modulation”, the “reduction of tumor volume growth compared to vehicle control” value (BxPC-3 cells) was 37% and the “murine Gli-1 modulation” value (murine Gli-1) was “did reveal modulation”. The “human Gli-1 modulation (q-RT-PCR)” value (human Gli-1) was “no modulation”, the EC50 (Hedgehog pathway) was under 0.02 µM and the “HH pathway regulation measured by Gli-1 mRNA expression” value (Gli-1 mRNA) was “dose-dependent down-regulation”. For the same compound, the “murine Gli-1 mRNA levels vs vehicle” value (murine Gli-1 mRNA) was “robust down-regulation”, the “decrease in tumor weight vs vehicle” value [1] was 47% and the ED50 (medulloblastoma; Mus musculus, daily oral dosing, read-out: approximate effective daily oral dose for 50% inhibition of tumor growth (ED50)) was about 8 mg/kg. For the same compound, the tumor growth effect (medulloblastoma; daily (QD) PO administration) was “dose dependent inhibition of tumor growth, with frank tumor regression seen at higher doses”, the “long term survival following cessation of treatment” value (medulloblastoma; treated QD for 21 days) was over 19 days and the “tumor re-growth after cessation of treatment” value (medulloblastoma; treated QD for 21 days) was “little to no tumor re-growth”.
`CC1=C2C[C@H]3[C@@H](CC[C@@H]4Cc5n[nH]cc5C[C@@]43C)[C@@H]2CC[C@@]2(C1)O[C@@H]1C[C@H](C)CN(O)[C@H]1[C@H]2C` [Compound 31] showed an EC50 (Hedgehog pathway) of 0.02 to 0.1 µM.
`CC1=C2C[C@H]3[C@@H](CC[C@@H]4Cc5[nH][nH]c(=O)c5C[C@@]43C)[C@@H]2CC[C@@]2(C1)O[C@@H]1C[C@H](C)CN[C@H]1[C@H]2C` [Compound 32] showed an EC50 (Hedgehog pathway) of over 0.1 µM.
In the case of `CC1=C2C[C@H]3[C@@H](CC[C@@H]4Cc5nn(S(C)(=O)=O)cc5C[C@@]43C)[C@@H]2CC[C@@]2(C1)O[C@@H]1C[C@H](C)CN(S(C)(=O)=O)[C@H]1[C@H]2C` [Compound 41], the EC50 (Hedgehog pathway) is reported as over 0.1 µM.
`CC1=C2C[C@H]3[C@@H](CC[C@@H]4Cc5nc(C)sc5C[C@@]43C)[C@@H]2CC[C@@]2(C1)O[C@@H]1C[C@H](C)CN[C@H]1[C@H]2C` [Compound 42] showed an EC50 (Hedgehog pathway) of over 0.1 µM.
